According to patent US7851474B2, “Dipiperazinyl ketones and related analogues” (Neurogen Corporation, priority 2005, dated 2010):

Each molecule was assayed against T1, chimeric human H3 receptor (Homo sapiens, UniProt Q9Y5N1, E19D) (assay: Chimeric human H3 receptor GTP binding assay (agonist-stimulated GTP-gamma35S binding, Example 7)). Conditions: not given.
T1 construct: made in house; host or cells: Sf9 insect cells (baculovirus infection); P2 membrane preparation
Type: biochemical
In short: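 Sf9 membranes co-expressing the chimeric receptor and heterotrimeric G-protein subunits, 35 μg protein per tube, in pH 7.4 Tris buffer with 10 μM GDP. Test compounds at 10^−10 to 10^−6 M with 1 μM histamine, 60 min at room temperature. Filter-bound GTP-gamma^35S read by scintillation; IC50 from non-linear regression of dose-response curves.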

T1 sequence (Q9Y5N1 with tags, fused parts or gaps E19D): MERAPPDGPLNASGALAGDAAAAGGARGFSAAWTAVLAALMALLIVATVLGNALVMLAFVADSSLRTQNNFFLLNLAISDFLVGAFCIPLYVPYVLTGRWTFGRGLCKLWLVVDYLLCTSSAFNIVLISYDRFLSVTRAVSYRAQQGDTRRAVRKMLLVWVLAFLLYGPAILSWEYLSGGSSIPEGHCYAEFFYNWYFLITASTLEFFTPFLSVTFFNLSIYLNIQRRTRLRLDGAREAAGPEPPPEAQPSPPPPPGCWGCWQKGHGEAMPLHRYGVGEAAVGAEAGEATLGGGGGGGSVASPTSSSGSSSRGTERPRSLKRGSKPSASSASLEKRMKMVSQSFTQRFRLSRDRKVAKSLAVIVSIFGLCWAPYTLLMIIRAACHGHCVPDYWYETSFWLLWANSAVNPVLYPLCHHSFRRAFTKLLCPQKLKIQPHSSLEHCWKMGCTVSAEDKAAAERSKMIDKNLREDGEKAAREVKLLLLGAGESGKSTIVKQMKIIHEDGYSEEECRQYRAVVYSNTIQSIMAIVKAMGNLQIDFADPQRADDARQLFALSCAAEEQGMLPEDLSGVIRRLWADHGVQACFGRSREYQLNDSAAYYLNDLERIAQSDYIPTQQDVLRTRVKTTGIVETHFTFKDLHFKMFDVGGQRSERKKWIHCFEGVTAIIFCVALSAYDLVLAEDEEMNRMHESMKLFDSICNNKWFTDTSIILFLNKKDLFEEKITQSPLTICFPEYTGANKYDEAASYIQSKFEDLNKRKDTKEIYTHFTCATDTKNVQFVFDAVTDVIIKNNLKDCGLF

| Structure (SMILES) | Ki |
| --- | --- |
| O=C(CN1CCN(c2cccc(C(F)(F)F)c2)CC1)N1CCN(C2CCCC2)CC1 [Compound 827, 1-cyclopentyl-4-({4-[3-(trifluoromethyl)phenyl]piperazin-1-yl}acetyl)piperazine] | < 1 µM |

Same assay, conditions: "*" in Ki of Table II; assay of Example 7; read-out: Ki

| Ki | Structure (SMILES) |
| --- | --- |
| < 1 µM | O=C(Cc1ccccc1Oc1ccccc1)N1CCN(CC(=O)N2CCN(C3CCC3)CC2)CC1 [Compound 541, 1-cyclobutyl-4-({4-[(2-phenoxyphenyl)acetyl]piperazin-1-yl}acetyl)piperazine] |
| < 1 µM | Cc1cccc(OC(C)C(=O)N2CCN(CC(=O)N3CCN(C4CCC4)CC3)CC2)c1C (stereo not shown) [Compound 571, 1-cyclobutyl-4-({4-[2-(2,3-dimethylphenoxy)propanoyl]piperazin-1-yl}acetyl)piperazine] |
| < 1 µM | COc1ccccc1CC(=O)N1CCN(CC(=O)N2CCN(C3CCC3)CC2)CC1 [Compound 536, 1-cyclobutyl-4-({4-[(2-methoxyphenyl)acetyl]piperazin-1-yl}acetyl)piperazine] |

Same assay, conditions: Table II "Ki", symbol "*": Ki in the assay of Example 7; read-out: Ki

| Structure (SMILES) | Ki |
| --- | --- |
| CCC(C)N1CCN(C(=O)CN2CCN(c3ccc(Cl)c(OC)c3)CC2)CC1 (stereo not shown) [Compound 877, 1-sec-butyl-4-{[4-(4-chloro-3-methoxyphenyl)piperazin-1-yl]acetyl}piperazine] | < 1 µM |
| O=C(CN1CCC(N2CCCC2)CC1)N1CCN(C2CCCCC2)CC1 [Compound 806, 1-cyclohexyl-4-[(4-pyrrolidin-1-ylpiperidin-1-yl)acetyl]piperazine] | < 1 µM |
| CCC(C)N1CCN(C(=O)CN2CCN(c3cccc(C)c3C)CC2)CC1 (stereo not shown) [Compound 860, 1-sec-butyl-4-{[4-(2,3-dimethylphenyl)piperazin-1-yl]acetyl}piperazine] | < 1 µM |
| Cc1ccc(F)c(-c2cnc(N3CCN(CC(=O)N4CCN(C5CCC5)CC4)CC3)cn2)c1Cl [Compound 897, 2-(2-chloro-6-fluoro-3-methylphenyl)-5-{4-[2-(4-cyclobutylpiperazin-1-yl)-2-oxoethyl]piperazin-1-yl}pyrazine] | < 1 µM |
| CCC(C)N1CCN(C(=O)CN2CCN(c3ccc(C)cc3C)CC2)CC1 (stereo not shown) [Compound 863] | < 1 µM |
| CCC(C)N1CCN(C(=O)CN2CCC(N3CCCC3)CC2)CC1 (stereo not shown) [Compound 858, 1-sec-butyl-4-[(4-pyrrolidin-1-ylpiperidin-1-yl)acetyl]piperazine] | < 1 µM |

Now from value to molecule:

| Ki | Structure (SMILES) |
| --- | --- |
| < 1 µM | O=C(CN1CCN(c2nc3ccccc3n2Cc2ccc(F)cc2)CC1)N1CCN(C2CCC2)CC1 [Compound 915, 2-{4-[2-(4-cyclobutylpiperazin-1-yl)-2-oxoethyl]piperazin-1-yl}-1-(4-fluorobenzyl)-1H-benzimidazole] |
| < 1 µM | CCc1cccc(-c2cnc(N3CCN(CC(=O)N4CCN(C5CCC5)CC4)CC3)cn2)c1 [Compound 932, 2-{4-[2-(4-cyclobutylpiperazin-1-yl)-2-oxoethyl]piperazin-1-yl}-5-(3-ethylphenyl)pyrazine] |

Same assay, conditions: Table II, "*" in Ki; assay of Example 7; read-out: Ki

| Ki | Structure (SMILES) |
| --- | --- |
| < 1 µM | CS(=O)(=O)c1ccc(N2CCN(CC(=O)N3CCN(C4CCC4)CC3)CC2)cc1 [Compound 599, 1-cyclobutyl-4-({4-[4-(methylsulfonyl)phenyl]piperazin-1-yl}acetyl)piperazine] |
| < 1 µM | O=C(CN1CCC(N2CCCC2)CC1)N1CCN(C2CCC2)CC1 [Compound 658, 1-cyclobutyl-4-[(4-pyrrolidin-1-ylpiperidin-1-yl)acetyl]piperazine] |

Same assay, conditions: Table II; assay of Example 7; "*" in Ki; read-out: Ki

| Structure (SMILES) | Ki |
| --- | --- |
| CCN(C(=O)c1cccc(N2CCN(CC(=O)N3CCN(C4CCC4)CC3)CC2)c1)C1CCCCC1 [Compound 1069, 3-{4-[2-(4-cyclobutylpiperazin-1-yl)-2-oxoethyl]piperazin-1-yl}-N-cyclohexyl-N-ethylbenzamide] | < 1 µM |
| O=C(CN1CCN(c2ccc(-c3cccc4c3oc3ccccc34)nn2)CC1)N1CCN(C2CCC2)CC1 [Compound 1044, 3-{4-[2-(4-cyclobutylpiperazin-1-yl)-2-oxoethyl]piperazin-1-yl}-6-dibenzo[b,d]furan-4-ylpyridazine] | < 1 µM |
| COc1ccc(Cl)cc1-c1ccc(N2CCN(CC(=O)N3CCN(C4CCC4)CC3)CC2)nn1 [Compound 995, 3-(5-chloro-2-methoxyphenyl)-6-{4-[2-(4-cyclobutylpiperazin-1-yl)-2-oxoethyl]piperazin-1-yl}pyridazine] | < 1 µM |
| O=C(CN1CCN(c2ccc(-c3cccc(Cl)c3Cl)nn2)CC1)N1CCN(C2CCC2)CC1 [Compound 1054, 3-{4-[2-(4-cyclobutylpiperazin-1-yl)-2-oxoethyl]piperazin-1-yl}-6-(2,3-dichlorophenyl)pyridazine] | < 1 µM |

Now from value to molecule:

| Ki | Structure (SMILES) |
| --- | --- |
| < 1 µM | COc1ccc2cc(-c3ccc(N4CCN(CC(=O)N5CCN(C6CCC6)CC5)CC4)nn3)ccc2c1 [Compound 1029, 3-{4-[2-(4-cyclobutylpiperazin-1-yl)-2-oxoethyl]piperazin-1-yl}-6-(6-methoxy-2-naphthyl)pyridazine] |
| < 1 µM | CC(C)(C)c1ccc(-c2ccc(N3CCN(CC(=O)N4CCN(C5CCC5)CC4)CC3)nn2)cc1 [Compound 992, 3-(4-tert-butylphenyl)-6-{4-[2-(4-cyclobutylpiperazin-1-yl)-2-oxoethyl]piperazin-1-yl}pyridazine] |
| < 1 µM | O=C(NC1CC1)c1cccc(N2CCN(CC(=O)N3CCN(C4CCC4)CC3)CC2)c1 [Compound 1078, 3-{4-[2-(4-cyclobutylpiperazin-1-yl)-2-oxoethyl]piperazin-1-yl}-N-cyclopropylbenzamide] |
| < 1 µM | COc1ccccc1-c1ccc(N2CCN(CC(=O)N3CCN(C4CCC4)CC3)CC2)nn1 [Compound 1039, 3-{4-[2-(4-cyclobutylpiperazin-1-yl)-2-oxoethyl]piperazin-1-yl}-6-(2-methoxyphenyl) pyridazine] |
| < 1 µM | CCCOc1ccc(-c2ccc(N3CCN(CC(=O)N4CCN(C5CCC5)CC4)CC3)nn2)cc1 [Compound 1037, 3-{4-[2-(4-cyclobutylpiperazin-1-yl)-2-oxoethyl]piperazin-1-yl}-6-(4-propoxyphenyl) pyridazine] |

Same assay, conditions: assay of Example 7; "*" in Ki of Table II; read-out: Ki

| Ki | Structure (SMILES) |
| --- | --- |
| < 1 µM | CC(C)CNC(=O)c1ccc(N2CCN(CC(=O)N3CCN(C4CCC4)CC3)CC2)nc1 [Compound 1177, 6-{4-[2-(4-cyclobutylpiperazin-1-yl)-2-oxoethyl]piperazin-1-yl}-N-isobutylnicotinamide] |
| < 1 µM | Cc1ccc(C(=O)NC2CCN(CC(=O)N3CCN(C4CCC4)CC3)CC2)cc1C [Compound 1212, N-{1-[2-(4-cyclobutylpiperazin-1-yl)-2-oxoethyl]piperidin-4-yl}-3,4-dimethylbenzamide] |
| < 1 µM | CCSc1ccc(C(=O)NC2CCN(CC(=O)N3CCN(C4CCC4)CC3)CC2)cc1 [Compound 1223, N-{1-[2-(4-cyclobutylpiperazin-1-yl)-2-oxoethyl]piperidin-4-yl}-4-(ethylthio)benzamide] |
| < 1 µM | O=C(NC1CCN(CC(=O)N2CCN(C3CCC3)CC2)CC1)C1CCCCCC1 [Compound 1228, N-{1-[2-(4-cyclobutylpiperazin-1-yl)-2-oxoethyl]piperidin-4-yl} cycloheptanecarboxamide] |
| < 1 µM | CCC(C)CC(=O)NC1CCN(CC(=O)N2CCN(C3CCC3)CC2)C1 (stereo not shown) [Compound 1251, N-{1-[2-(4-cyclobutylpiperazin-1-yl)-2-oxoethyl]pyrrolidin-3-yl}-3-methylpentanamide] |
| < 1 µM | CC(C)(C)CC(=O)NC1CCN(CC(=O)N2CCN(C3CCC3)CC2)C1 (stereo not shown) [Compound 1252, N-{1-[2-(4-cyclobutylpiperazin-1-yl)-2-oxoethyl]pyrrolidin-3-yl}-3,3-dimethylbutanamide] |

Same assay, conditions: assay of Example 7; symbol * in column headed Ki of Table II; read-out: Ki

| Structure (SMILES) | Ki |
| --- | --- |
| COc1ccc(CN2Cc3cccnc3C23CCN(CC(=O)N2CCN(C4CCC4)CC2)CC3)c(OC)c1 [Compound 429, 1-[2-(4-cyclobutylpiperazin-1-yl)-2-oxoethyl]-6′-(2,4-dimethoxybenzyl)-5′,6′-dihydrospiro[piperidine-4,7′-pyrrolo[3,4-b]pyridine]] | < 1 µM |
| CCCN(CC1CC1)C1CCN(CC(=O)N2CCN(C3CCC3)CC2)CC1 [Compound 431, 1-[2-(4-cyclobutylpiperazin-1-yl)-2-oxoethyl]-N-(cyclopropylmethyl)-N-propylpiperidin-4-amine] | < 1 µM |
| CC1CN(c2ccc(C(F)(F)F)cn2)CCN1CC(=O)N1CCN(C2CCCCC2)CC1 (stereo not shown) [Compound 438, 1-[2-(4-cyclohexylpiperazin-1-yl)-2-oxoethyl]-2-methyl-4-[5-(trifluoromethyl)pyridin-2-yl]piperazine] | < 1 µM |
| CC(C)N1CCN(C(=O)CN2CCN(c3ccc(Cl)c(Cl)c3)CC2)CC1 [Compound 283, 1-(3,4-dichlorophenyl)-4-[2-(4-isopropylpiperazin-1-yl)-2-oxoethyl]piperazine] | < 1 µM |

The next lines start with the values.

| Ki | Structure (SMILES) |
| --- | --- |
| < 1 µM | CC(=O)c1ccc(N2CCN(CC(=O)N3CCN(CC(C)C)CC3)CC2)cc1 [Compound 328, 1-(4-{4-[2-(4-isobutylpiperazin-1-yl)-2-oxoethyl]piperazin-1-yl}phenyl)ethanone] |
| < 1 µM | CC(C)(C)C(=O)c1ccc(N2CCN(CC(=O)N3CCN(C4CCC4)CC3)CC2)cc1 [Compound 314, 1-(4-{4-[2-(4-cyclobutylpiperazin-1-yl)-2-oxoethyl]piperazin-1-yl}phenyl)-2,2-dimethylpropan-1-one] |
| < 1 µM | CC(=O)c1ccc(-c2ccc(N3CCN(CC(=O)N4CCN(C5CCC5)CC4)CC3)cc2)cc1 [Compound 309, 1-(4′-{4-[2-(4-cyclobutylpiperazin-1-yl)-2-oxoethyl]piperazin-1-yl}biphenyl-4-yl)ethanone] |
| < 1 µM | O=C(CN1CCN(c2ccc(-c3ccccc3Cl)cc2)CC1)N1CCN(C2CCC2)CC1 [Compound 278, 1-(2′-chlorobiphenyl-4-yl)-4-[2-(4-cyclobutylpiperazin-1-yl)-2-oxoethyl]piperazine] |
